{"source": "patent US6642215B2", "about": "(Leo Pharma A/S, priority 2001, dated 2003)", "format_in_all_cases": "cell-based, human", "key": {"[1]": {"test_system": "IκBα, IκBβ", "experiment": "Western blotting of LPS-induced IκB degradation in THP-1 cells", "details": "1 μM compound 24 h before 1 μg/ml LPS for 10 to 30 min, versus DMSO-treated cells", "method": "Western blotting: THP-1 cells (5×10^6 cells) were starved overnight at 37° C., 5% CO2 in starvation medium (RPMI 1640 with 2% FBS) including 1 μM of compound A or 0.01% DMSO. The cells were hereafter stimulated with 1 μg/ml LPS (E. coli serotype 055: B5, Sigma-Aldrich Danmark AS, Vallensbaek Strand, Denmark) at the indicated times. Whole cell extracts were prepared in lysis buffer (50 mM HEPES, pH 7.5, 150 mM NaCl, 10 mM EDTA, 10 mM Na4P2O7, 100 mM NaF, 2 mM Na3VO4, 1% Triton-X-100, 0.5 mM Pefabloc (Boehringer Mannheim GmbH, Mannheim, Germany), […]).\nA 3×SDS-sample buffer (125 mM Tris/HCl pH 6.8, 4% SDS, 20% glycerol, 0.025% bromphenol blue, 10% DTT) was added to 200 μl of clarified cell lysate, and the sample (20 μl) was boiled and electrophoresed on a 12% SDS-polyacrylamide gel. The primary antibodies (anti-IκBα, anti-IκBβ, anti-cdk-7; all from Santa Cruz Biotechnology Inc., Heidelberg, Germany) were diluted 1:1000. The secondary antibody (anti-rabbit-HRP from DAKO A/S, Glostrup, Denmark) was used in a 1:2000 dilution. […] The relative amounts of the transferred proteins were quantified by using the ImageQuant Software (Molecular Dynamics, Sunnyvale, Calif., USA) by scanning the autoradiographic films and normalized to the related cdk-7 amounts."}, "[2]": {"test_system": "NF-κB", "experiment": "NF-κB-dependent luciferase assay in PC-3 cells, TNF-α stimulation", "details": "compound 24 h before TNF-α 50 ng/ml 6 h", "method": "(§1) The NF-κB-luciferase reporter plasmid (pBIIX) and pRL-TK control vector described in Example 1 were used for the luciferase assay,\nThe PC-3 cells were seeded at a density of 3×10^4 cells/cm^2 in 6 well-plates. The following day, the cells were co-transfected with construct DNA and pRL-TK vector using DOTAP liposomal transfection reagent (Boehringer Mannheim). The construct DNA (4.0 μg per well), the pRL-TK vector (1.0 μg per well), DOTAP (16.7 μl per well) and dH2O (total volume 100 μl per well) were carefully mixed and incubated for 15 min at 37° C. A growth medium without serum (900 μl per well) was added and the transfection mixture (1 ml per well) was added to the cells. After 4 h at 37° C., a growth medium with 20% FBS (1 ml per well) was added. The cells were treated at 37° C. with compound A (10^−12−10^−5 M) or DMSO for 24 h before stimulation with TNF-α (50 ng/ml) for 6 h.\n(§2) The cell lysate was assayed for luciferase activity using the Dual luciferase kit as described by the manufacturer (Promega). All transfections were performed in triplicate. Firefly luciferase activity was corrected for differences in transfection efficiency by normalizing it to the measured Renilla luciferase activity.\n(§3) NF-κB activity was measured by the luciferase assay described in Example 1."}, "[3]": {"test_system": "NF-κB", "experiment": "NF-κB-dependent luciferase assay in Colo-320 cells, TNF-α stimulation", "details": "Homo sapiens, compound 24 h before TNF-α 50 ng/ml 6 h, mean ± SD", "method": "as §1\nThe Colo-320 cells were seeded with a density of 5×10^4 cells/cm^2 in 6-well plates (NUNC). The following day, the cells were co-transfected with construct DNA and pRL-TK using FuGene Transfection Reagent (Boehringer Mannheim). A mixture of 5 μl Fugene and 95 μl serum free medium (per well) was prepared and incubated for 5 min at room temperature. Then, the mixture was transferred to a mixture of construct DNA (2.5 μg per well) and pRL-TK vector (0.25 μg per well), gently mixed, incubated for 15 min at room temperature and added to the cells. The cells were treated at 37° C. with compound A (10^−12−10^−5 M) or DMSO for 24 h before stimulation with TNF-α (50 ng/ml) for 6 h.\nas §2, §3"}}, "data": [{"compound": "N#CNC(=Nc1ccncc1)NCCCCCCOc1ccc(Cl)cc1", "note": "[compound A, N-(6-(4-chlorophenoxy)hexyl)-N′-cyano-N″-(4-pyridyl)guanidine]", "values": [{"measurement": "LPS-induced IκB degradation", "setting": "[1]", "value": "much slower rate"}, {"measurement": "NF-κB activity (IC50 nM)", "setting": "[2]", "value": "no inhibition"}, {"measurement": "IC50", "setting": "[3]", "value": "84 ± 33", "unit": "nM"}]}]}
